# Measured values as given in patent publication US20040220086A1, “Methods and materials for targeting and affecting selected cells” (priority 2001, published 2004).
# Assays:
# [1] = cited from earlier work
# NADH-oxidase = details: plasma membrane redox enzyme; cited from earlier work
# metastatic sarcoma = details: person, 2000 as printed
# Procedure: This concerns a person with metastatic disease from a sarcoma of their right atrium who was treated beginning August, 2000 by using conventional protocols.
# human mesothelioma cells = details: cited from earlier work
# [2] = test system: leukemic cells in peripheral blood; details: cited from earlier work
# leukemic cells = details: cells from peripheral blood and marrow of leukemia patients; cited from earlier work
# [3] = test system: drug-resistant K562 cells; details: cited from earlier work
# [4] = test system: drug-resistant HL60 cells; details: cited from earlier work
# [5] = test system: normal or transferrin receptor-negative cells; details: cited from earlier work
# [6] = nude mice; cited from earlier work
molecule,measurement,setting,value
O=C(O)CCCc1ccc(N(CCCl)CCCl)cc1 [chlorambucil],survival of treated mice,[1],died
"COc1cccc2c1C(=O)c1c(O)c3c(c(O)c1C2=O)C[C@@](O)(C(=O)CO)C[C@@H]3O[C@H]1C[C@H](N)[C@H](O)[C@H](C)O1 [doxorubicin, reference compound]",inhibition of NADH-oxidase,NADH-oxidase,efficient inhibitor
"human transferrin-chlorambucil conjugates: human transferrin conjugated to chlorambucil, reference 51",survival of treated mice,[1],survived
same,toxicity compared with free chlorambucil,[1]; mice,less toxic
transferrin-doxorubicin conjugates,radiological evidence of tumor,metastatic sarcoma; by January,no radiological evidence of tumor
same,metastatic lesions of the lungs,"metastatic sarcoma; treatment begun November 2000, by January",substantially cleared
same,survival compared with free doxorubicin,human mesothelioma cells; nude mice bearing drug-resistant human tumors,survive longer
same,life prolongation compared to animals treated only with doxorubicin,"human mesothelioma cells; nude mice, human mesothelioma cells",significantly prolonged life
same,inhibition of NADH-oxidase,NADH-oxidase,inhibit
same,decrease of number of leukemic cells in peripheral blood,"[2]; 7 patients, within 10-days following therapy",86%
same,extension of disease by bone marrow biopsies before and after treatment,[2]; acute leukemia patients,no extension of disease
same,toxic effects,"[2]; seven acute leukemia patients, 1 mg/day intravenously for 5 days",no toxic effects
same,selective killing of leukemic cells,leukemic cells,kill selectively
same,killing of cells resistant to doxorubicin,[3],effective in killing
same,killing of cells resistant to doxorubicin,[4],effective in killing
same,binding to cells,[5],do not bind
"neocarzinostatin (protein, UniProt P0A3R9 35-147, looked up, with enediyne chromophore) Neocarzinostatin: AAPTATVTPSSGLSDGTVVKVAGAGLQAGTAYDVGQCAWVDTGVLACNPADFSSVTADANGSASTSLTVRRSFEGFLFDGTRWGTVDCTTAACQVGLSDAAGNGPEGVAISFN",half-life,[6],7 min
